Legend:
[1] = test system: hypotension induced by PAF; experiment: Inhibition of the hypotensive effect induced by PAF in normotense rats; type: in vivo, Sprage Dawley rats; settings: anesthetized male rats; compound given through the femoral vein 3 min before PAF (0.5 mcg/Kg, i.v.); average arterial pressure
Description: Inhibition of the hypotensive effect induced by PAF in normotense rats.
Male Sprage Dawley rats, of 180-220 g of weight, anesthetized with sodium pentobarbital (50 mg/Kg, i.p. 1 mL/100 g) have been used. In order to measure the average arterial pressure, a polyethylene catheter is introduced into the carotid artery. The arterial pressure is recorded with the help of a transducer connected with a R611 Beckman polygraph. The tested compounds are administered through the femoral vein 3 min before the injection of PAF (0.5 mcg/Kg, i.v.).

[2] = test system: platelet aggregation induced by PAF; experiment: Inhibition of platelet aggregation induced by PAF (rabbit platelet rich plasma, Born nephelometric technique); type: cell-based, New Zealand albino rabbits; settings: Oryctolagus cuniculus, concentration needed to inhibit platelet aggregation by 50%, PAF (C₁₈) 16 nM final, read-out: IC₅₀
Description: Inhibition of platelet aggregation induced by PAF.
The blood is obtained by cardiac puncture of male New Zealand albino rabbits (between 2 and 2.5 Kg of weight) and coagulation is prevented by adding 1 part of 3.16% sodium citrate dihydrate in 9 parts of blood. The platelet rich plasma (PRP) is prepared by blood centrifugation at 250xg for 10 min. at 4°C and it is diluted with platelet poor plasma (PPP) by additional centrifugation at 3000xg for 10 min. The amount of platelets is adjusted to […]. The platelet aggregation induced by PAF (C₁₈; prepared in our laboratory) (16 nM, final) is determined by the Born nephelometric technique (J. Physiol., 1962, 162, 67) using a aggregometer Chrono-log 500. The activities of the inhibitors are expressed as IC₅₀, that is to say the concentration of the drug needed to inhibit the platelet aggregation by 50%.

| IC50 [2] [nM] | Structure (SMILES) | CI₅₀ [1] |
| --- | --- | --- |
| 2200 | CCCCCCCCCCCCCCCCCC1OCC(COC(=O)N(Cc2cccc[n+]2C)C(C)=O)O1.[I-] (stereo not drawn) [Compound 3, 2-(N-Acetyl-N-(((2-heptadecyl-1,3-dioxolane-4-yl)methoxy)carbonyl)aminomethyl)-1-methylpyridinium iodide] | 0.9 mg/Kg,i.v. |
| 210 | CCCCCCCCCCCCCCCCCC1OCC(COC(=O)N(Cc2cccc[n+]2CC)C(C)=O)O1.[I-] (stereo not drawn) [Compound 4, 2-(N-acetyl-N-(((2-heptadecyl-1,3-dioxolane-4-yl)methoxy)carbonyl)aminomethyl)-1-ethylpyridinium iodide] | 0.2 mg/Kg,i.v. |
| < 100 | CCCCCCCCCCCCCCCCOCC1OCC(COC(=O)N(Cc2cccc[n+]2CC)C(C)=O)O1.[I-] (stereo not drawn) [Compound 7, 2-(N-Acetyl-N-(((2-hexadecyloxymethyl-1,3-dioxolan-4-yl)methoxy)carbonyl)aminomethyl)-1-ethylpyridinium iodide] | <0.1 mg/Kg,i.v. |
| 1200 | CCCCCCCCCCCCCCCCCCOCC1OCC(COC(=O)N(Cc2cccc[n+]2C)C(C)=O)O1.[I-] (stereo not drawn) [Compound 10, 2-(N-Acetyl-N-(((2-octadecyloxymethyl-1,3-dioxolan-4-yl)methoxy)carbonyl)aminomethyl)-1-methylpyridinium iodide] | 0.35 mg/Kg,i.v. |
| 160 | CCCCCCCCCCCCCCCCCCOCC1OCC(COC(=O)N(Cc2cccc[n+]2CC)C(C)=O)O1.[I-] (stereo not drawn) [Compound 11, 2(N-Acetyl-N-(((2-octadecyloxymethyl-1,3-dioxolan-4-yl)methoxy)carbonyl)aminomethyl)-1-ethylpyridinium iodide] | <0.1 mg/Kg,i.v. |
| < 100 | CCCCCCCCCCCCCCCNC(=O)OCC1OCC(COC(=O)N(Cc2cccc[n+]2CC)C(C)=O)O1.[I-] (stereo not drawn) [Compound 14, 2(N-Acetyl-N-(((2-pentadecylcarbamoyloxymethyl-1,3-dioxolan-4-yl)methoxy)carbonyl)aminomethyl)-1-ethylpyridinium iodide] | <0.1 mg/Kg,i.v. |

Reference: patent EP0388950A2, “New 1,3-dioxolan-4-yl derivatives of 2-picolylamine” (J. URIACH & CIA. S.A., priority 1989, dated 1990)
